Assay results: patent publication US20220296566A1, “COMBINATION PRODUCT CONTAINING LIMONOID COMPOUND AND ALPHA-GLUCOSIDASE INHIBITOR” (ZHEJIANG YANGSHENGTANG INSTITUTE OF NATURAL MEDICATION CO., …, priority 2019, published 2022)

How the values were obtained:
Type in all cases: in vivo
db/db mice [1] = experiment: Blood glucose in mouse type II diabetes model, db/db mice (Example 4); settings: single agent 0.2 g/kg per day by gavage, two weeks, 1 h after last administration, mean ± SD
From the text: (§1) Effects of limonoid compound, acarbose or combination thereof on blood glucose and insulin in mouse type II diabetes model
(§2) In the present embodiment, the limonoid compound was selected from nomilin, deacetylnomilin, nomilin acid, deacetylnomilin acid glycoside, and acarbose single administration group, nomilin single administration group, deacetylnomilin single administration group, nomilin acid single administered group, deacetylnomilin acid glycoside single administration group, and respective combination thereof with acarbose administration groups were set.
Conditions for experimental feeding: as type II diabetes model mice, 6-week-old SPF-grade db/db mice were purchased from the Nanjing Model Biology Institute, and subjected to experimental feeding after 7 days of preliminary feeding. […]
Gavage doses: nomilin at a dose of 0.2 g/kg was gavaged per day for the nomilin group, deacetylnomilin at a dose of 0.2 g/kg was gavaged per day for the deacetylnomilin group, nomilin acid at a dose of 0.2 g/kg was gavaged per day for the nomilin acid group, deacetylnomilin acid glycoside at a dose of 0.2 g/kg was gavaged per day for the deacetylnomilin acid glycoside group, acarbose at a dose of 0.2 g/kg was gavaged per day for the acarbose group, nomilin at a dose of 0.1 g/kg and acarbose at a dose of 0.1 g/kg were simultaneously gavaged per day for the nomilin combination group, nomilin acid at a dose of 0.1 g/kg and acarbose at a dose of 0.1 g/kg were simultaneously gavaged per day for the nomilin acid combination group, deacetylnomilin at a dose of 0.1 g/kg and acarbose at a dose of 0.1 g/kg were simultaneously gavaged per day for the deacetylnomilin combination group, deacetylnomilin acid glycoside at a dose of 0.1 g/kg and acarbose at a dose of 0.1 g/kg were simultaneously gavaged per day for the deacetylnomilin acid glycoside combination group, the gavage volume was 10 mL/kg, and the normal group and the model group were administrated with 10 mL/kg of distilled water. […] The data were expressed as mean and standard deviation. […]

db/db mice [2] = experiment: Serum insulin by Elisa in db/db mice (Example 4); settings: single agent 0.2 g/kg per day by gavage, two weeks, mean ± SD
From the text: as §1, §2
(§3) Conditions for experimental feeding: as type II diabetes model mice, 6-week-old SPF-grade db/db mice were purchased from the Nanjing Model Biology Institute, and subjected to experimental feeding after 7 days of preliminary feeding. It should be noted that the conditions for raising the mice were as follows: the temperature was 23±1° C., the humidity was 55±10%, the lights were turned on between 7 am and 7 pm (the lights were turned off at other time), and the mice were allowed to freely take in water and feed. The experimental feed was mouse growth-stable feed (GB M2118), and the daily feeding and management of the animals were under the responsibility of the animal security department, which provided the animals with sufficient diet and fresh drinking water daily. […]

db/db mice [3] = experiment: Blood glucose in mouse type II diabetes model, db/db mice (Example 2); settings: single agent 0.04 g/kg per day by gavage, two weeks, 1 h after last administration, mean ± SD
From the text: (§4) Effects of limonoid compound, acarbose or combination thereof on blood glucose and leptin in mouse type II diabetes model
(§5) In the present example, db/db mice (line name BKS.Cg-Dock7^m+/+Lepr^db/Nju) were used to perform hypoglycemic efficacy evaluation test of animals (blood glucose level and leptin). The limonoid compound was selected from obacunone, isoobacunoic acid and obacunone glycoside, and acarbose single administration group, obacunone single administration group, isoobacunoic acid single administration group, obacunone glycoside single administered group, and respective combination thereof with acarbose administration groups were set.
as §3, with “feed.” for “feed. The experimental feed was mouse growth-stable feed (GB M2118), and the daily feeding and management of the animals were under the responsibility of the animal security department, which provided the animals with sufficient diet and fresh drinking water daily.”

db/db mice [4] = experiment: Serum leptin by Elisa in db/db mice (Example 2); settings: single agent 0.04 g/kg per day by gavage, two weeks, mean ± SD
From the text: as §4, §5
as §3, with “feed.” for “feed. The experimental feed was mouse growth-stable feed (GB M2118), and the daily feeding and management of the animals were under the responsibility of the animal security department, which provided the animals with sufficient diet and fresh drinking water daily.”

STZ mice = experiment: Blood glucose in mouse type II diabetes model with pancreatic islet damage and obesity, STZ plus high-fat diet (Example 5); settings: STZ + high-fat diet ICR mice; single agent 0.5 g/kg per day by gavage, two weeks; 1 h after last administration; mean ± SD
From the text: Effects of limonoid compound, acarbose or combination thereof on blood glucose in mouse type II diabetes model with pancreatic islet damage and obesity
In this example, a mouse model of type II diabetes with pancreatic islet damage and obesity was established by multiple modeling ICR mice with a small dose of streptozotocin (STZ), following with continuous high-fat diets (referring to literature: Zhang Jiyuan et al, Study on the effect of three plant extracts on improving glucose and lipid metabolism in type 2 diabetic mice, Food and Machinery, 2016, 32 (12): 142-147). […]
Experimental grouping: 15 male mice were randomly selected as the normal control group, and the remaining mice were subjected to a high-fat diet (high-fat diet formula: cholesterol 1%, egg yolk powder 10%, lard oil 10%, and basic feed 79%, for establishing an obesity mouse model) for consecutive 4 weeks and intraperitoneal injection of STZ at a dose of 35mg/kg for three consecutive days. After one week, the mice were subject to 24 hours of fasting and water deprivation, their fasting blood glucose was measured, and the mice with a blood glucose level of 15 to 25 mmol/L were selected and undifferentiatedly grouped and used in the experiment, continuously subjected to the high-fat diet, 15 mice in each group, and subjected to blood sampling and detection of indicators after 2 weeks of administration. […]

CC1(C)OC(=O)C[C@H](O)[C@]2(C)[C@H]3CC[C@@]4(C)[C@H](c5ccoc5)OC(=O)[C@H]5O[C@]54[C@]3(C)C(=O)C[C@@H]12 [Deacetylnomilin, deacetylnomilin]
Blood glucose value (db/db mice [1]): 11.9 ± 2.9 mmol/L

nomilin acid
Insulin (db/db mice [2]): 8.08 ± 1.49 pg/mL

CC1(C)OC(=O)C=C[C@]2(C)[C@H]3CC[C@@](C)([C@@H](O[C@@H]4O[C@H](CO)[C@@H](O)[C@H](O)[C@H]4O)c4ccoc4)[C@@]4(O[C@@H]4C(=O)O)[C@]3(C)C(=O)C[C@@H]12 [Obacunone glycoside, obacunone glycoside]
Blood glucose value (db/db mice [3]): 13.7 ± 2.9 mmol/L
Leptin (db/db mice [4]): 28.55 ± 4.00 pg/mL

CC(=O)O[C@@H]1CC(=O)OC(C)(C)[C@@H]2CC(=O)[C@]3(C)[C@H](CC[C@@](C)(C(O[C@@H]4O[C@H](CO)[C@@H](O)[C@H](O)[C@H]4O)c4ccoc4)C34OC4C(=O)O)[C@@]12C (stereo partly drawn) [Nomilin glycoside, nomilin glycoside]
Blood glucose value (STZ mice): 12.8 ± 2.9 mmol/L

CC(=O)O[C@H]1CC(=O)OC(C)(C)[C@@H]2CC(=O)[C@]3(C)[C@H](CC[C@@]4(C)[C@H](c5ccoc5)OC(=O)[C@H]5O[C@]543)[C@@]12C [Nomilin, nomilin]
Blood glucose value (db/db mice [1]): 10.1 ± 3.9 mmol/L
